Results on four compounds are retold here after article doi:10.1101/2025.09.24.678246 (bioRxiv, 2025).

In brackets after ≈: the same amount, converted by molar mass. Several values for one entry are separate records, joined by “and”; a condition that tells them apart may be missing. Identical values can stand only once. Entries after “also recorded” stand apart in the source; their conditions may differ. Like-named read-outs stand apart in the source and are kept apart here.

Assay [1] relates to drug sensitive and resistant Mtb isolates. Put plainly: microbe, parasite or virus in culture. The class given is cell-based. As to conditions: Mycobacterium tuberculosis.
The test system of the next assay is WT H37Rv. The assay is classed as cell-based, Mycobacterium tuberculosis.
Assay [2] deals with H37Rv ΔbioA TetON-5 (BioA-UE). The assay is classed as cell-based. The note with it: Fig. 2C.
Assay [3] has as its system C48-resistant Mtb H37Rv mutants. The class given is cell-based, Mycobacterium tuberculosis. The note with it: for susceptibility of C48-resistant mutants: compared with parent strain.
Assay [4] relates to H37Rv ΔbioA TetON-1 (BioA-OE). The class given is cell-based. The note with it: for normalized growth (no drug = 100): Fig. 2C, BioA-OE.
[5] abbreviates: M. tb CRC clinical strain K5072429, DS.

As to `O=C1CCc2cc(N3CCN(C(=O)c4ccc(F)c(Br)c4)CC3)ncc21` [C48], the MIC was < 0.024 µM in assay [1] (setting [5]); 0.024 µM (≈ 0.01 µg/mL) in assay [1] (M. tb Erdman, DS); 0.0156 µM (≈ 0.00652 µg/mL) in assay [1] (M. tb HN878, DS); 0.047 µM (≈ 0.0197 µg/mL) in assay [1] (M. tb K03b00DS, DS); 0.023 µM (≈ 0.00962 µg/mL) in assay [1] (M. tb K04b00DS, DS); 0.0156 µM (≈ 0.00652 µg/mL) in assay [1] (M. tb K05b00DS, DS). Moreover, the MIC in assay [1] (M. tb K07b00DS, DS) is 0.023 µM (≈ 0.00962 µg/mL); in assay [1] (M. tb K08b00DS, DS) it was < 0.024 µM; in assay [1] (M. tb K09b00DS, DS), 0.023 µM (≈ 0.00962 µg/mL); in assay [1] (M. tb K10b00DS, DS) it was < 0.024 µM; in assay [1] (M. tb K11b00DS, DS) it was 0.0625 µM (≈ 0.0261 µg/mL); in assay [1] (M. tb K12b00DS, DS), 0.023 µM (≈ 0.00962 µg/mL). In addition, the MIC is 0.023 µM (≈ 0.00962 µg/mL) in assay [1] (M. tb K13b00DS, DS); 0.0156 µM (≈ 0.00652 µg/mL) in assay [1] (M. tb K14b00DS, DS); < 0.024 µM in assay [1] (M. tb K15b00DS, DS); < 0.024 µM in assay [1] (M. tb K16b00DS, DS); < 0.024 µM in assay [1] (M. tb K17b00DS, DS); < 0.024 µM in assay [1] (M. tb K35b00DS, DS). Also, the MIC in assay [1] (M. tb NIH1B314, DR) was 0.0313 µM (≈ 0.0131 µg/mL); in assay [1] (M. tb NIH_G1DS, DS), < 0.024 µM; in assay [1] (M. tb NIH_G9R, DR), 0.0156 µM (≈ 0.00652 µg/mL); in assay [1] (M. tb NIH_G10R, DR), 0.0313 µM (≈ 0.0131 µg/mL); in assay [1] (M. tb NIH_G11R, DR), 0.0156 µM (≈ 0.00652 µg/mL); in assay [1] (M. tb NIH_G12, DS), < 0.024 µM. Also, the MIC is < 0.024 µM in assay [1] (M. tb NIH_G16R, DR); < 0.024 µM in assay [1] (M. tb NIH_G17R, DR); < 0.024 µM in assay [1] (M. tb NIH_G22R, DR); < 0.024 µM in assay [1] (M. tb NIH_GA36, DS); < 0.024 µM in assay [1] (M. tb NIH_SA3, DS); < 0.024 µM in assay [1] (M. tb NIH_SA23, DS). For the same compound, the MIC in assay [1] (M. tb NIH_SA27, DS) was < 0.024 µM; in assay [1] (M. tb NIH_SA39, DS), < 0.024 µM; in assay [1] (M. tb NIH_SA43, DS) it was < 0.024 µM; in assay [1] (M. tb NIH_SA125, DS), < 0.024 µM. Moreover, in the assay on WT H37Rv, the “frequency of spontaneously resistant mutants” value was “approximately 3×10^−8”. Also, the “normalized growth (no drug = 100)” value in assay [2] ([C48] 0.02 µM) was 85.8582 and 52.7583 and 51.6425; in assay [2] ([C48] 0.0434 µM), 81.0305 and 46.7008 and 49.5132; in assay [2] ([C48] 0.443 µM), 0.2448 and 0.3701 and 0.3017; in assay [2] ([C48] 4.52 µM) it was 0.6433 and 0.5522 and 0.8369; in assay [2] ([C48] 21.3 µM), 0.723 and 0.8369 and 1.008; in assay [2] ([C48] 46.1 µM) it was 1.133 and 0.9394 and 1.076. The “normalized growth (no drug = 100)” value in assay [2] ([C48] 100 µM) is 0.9037 and 0.9849 and 0.9735; in assay [4] ([C48] 0.02 µM), 99.1764 and 99.8577 and 98.7033; in assay [4] ([C48] 0.0434 µM), 95.2869 and 101.385 and 96.6682; in assay [4] ([C48] 0.0941 µM), 94.175 and 96.4099 and 95.7333; in assay [4] ([C48] 0.204 µM), 92.9284 and 86.8526 and 87.9532; in assay [4] ([C48] 0.443 µM) it was 34.2705 and 25.7913 and 36.1572. For the same compound, the “normalized growth (no drug = 100)” value in assay [4] ([C48] 0.96 µM) was 3.4759 and 3.24 and 3.555; in assay [4] ([C48] 4.52 µM) it was 1.679 and 2.083 and 1.432; in assay [4] ([C48] 21.3 µM), 2.409 and 2.139 and 2.1956; in assay [4] ([C48] 46.1 µM) it was 1.96 and 2.297 and 2.072; in assay [4] ([C48] 100 µM) it was 1.477 and 2.083 and 1.862. In assay [3], the “MIC shift compared to WT” value is given as “Large; also recorded: Medium”. In addition, the “increase in MIC of 30 resistant mutants compared to WT H37Rv” value in assay [3] is “approximately 300 fold”. Besides, the “resistance level of bioA mutant Met91Ile” value in assay [3] is reported as “high-level resistance”. In addition, the “resistance level of bioA mutants Met91Val, Met91Thr, Cys168Tyr” value in assay [3] is “medium-level resistance”. In assay [4] (ATc-inducible BioA overexpression), the “potency with increasing expression of BioA” value is listed as “decreases monotonically”.

On to `NNC(=O)c1ccncc1` [INH, isoniazid, reference compound], for which the “susceptibility of C48-resistant mutants” value in assay [3] was “retained susceptibility”.

Take `CC(=O)NC[C@H]1CN(c2ccc(N3CCOCC3)c(F)c2)C(=O)O1` [Linezolid, reference compound]: the MIC was 1.2 µM (≈ 0.405 µg/mL) in assay [1] (M. tb CDC1551, DS); 1.2 µM (≈ 0.405 µg/mL) in assay [1] (setting [5]); 1.6 µM (≈ 0.54 µg/mL) in assay [1] (M. tb Erdman, DS); 2.3 µM (≈ 0.776 µg/mL) in assay [1] (M. tb K03b00DS, DS); 1.2 µM (≈ 0.405 µg/mL) in assay [1] (M. tb K04b00DS, DS); 2.3 µM (≈ 0.776 µg/mL) in assay [1] (M. tb K07b00DS, DS). The MIC in assay [1] (M. tb K09b00DS, DS) turned out to be 1.2 µM (≈ 0.405 µg/mL); in assay [1] (M. tb K13b00DS, DS) it was 1.2 µM (≈ 0.405 µg/mL); in assay [1] (M. tb K14b00DS, DS), 1.2 µM (≈ 0.405 µg/mL); in assay [1] (M. tb K35b00DS, DS), 1.2 µM (≈ 0.405 µg/mL); in assay [1] (M. tb NIH_G1DS, DS), 2.3 µM (≈ 0.776 µg/mL); in assay [1] (M. tb NIH_G9R, DR) it was 2.3 µM (≈ 0.776 µg/mL). The MIC in assay [1] (M. tb NIH_G11R, DR) was determined as 2.3 µM (≈ 0.776 µg/mL); in assay [1] (M. tb NIH_G12, DS), 2.3 µM (≈ 0.776 µg/mL); in assay [1] (M. tb NIH_G16R, DR), 3.13 µM (≈ 1.06 µg/mL); in assay [1] (M. tb NIH_G17R, DR) it was 3.13 µM (≈ 1.06 µg/mL); in assay [1] (M. tb NIH_G22R, DR), 3.13 µM (≈ 1.06 µg/mL); in assay [1] (M. tb NIH_GA36, DS), 1.6 µM (≈ 0.54 µg/mL).

As for `CO[C@H]1/C=C/O[C@@]2(C)Oc3c(C)c(O)c4c(O)c(c(/C=N/N5CCN(C)CC5)c(O)c4c3C2=O)NC(=O)/C(C)=C\C=C\[C@H](C)[C@H](O)[C@@H](C)[C@@H](O)[C@@H](C)[C@H](OC(C)=O)[C@@H]1C` [Rifampicin, rifampicin, reference compound], the “susceptibility of C48-resistant mutants” value in assay [3] is “retained susceptibility”.
